Measurements as given in publication PMC9133036 (Nature Communications, 2022).
Changes are numbered by the printed parent chain. Several values for one entry are separate records, joined by “and”; a condition that tells them apart may be missing. Equal values may be shown once. Entries after “also recorded” stand apart in the source; their conditions may differ. Read-outs that look alike come from different tables or passages of the source. Blank lines part the entries; values can stand above or below the compound they belong to.

What was measured:
Assay type in all cases: cell-based
[1] = target: T1, human OX2R wild type (Homo sapiens, UniProt O43614); assay: Inositol phosphate accumulation assay for Gq signaling, OX2R WT; design: FLAG; expressed in transfected cells; host or cells: HEK293; conditions: for Emax: normalized to OX2R WT Emax with the same ligand;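 for % IP accumulation: 100% equals the maximal response of wild-type OX2R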
T1 sequence (O43614 1-444): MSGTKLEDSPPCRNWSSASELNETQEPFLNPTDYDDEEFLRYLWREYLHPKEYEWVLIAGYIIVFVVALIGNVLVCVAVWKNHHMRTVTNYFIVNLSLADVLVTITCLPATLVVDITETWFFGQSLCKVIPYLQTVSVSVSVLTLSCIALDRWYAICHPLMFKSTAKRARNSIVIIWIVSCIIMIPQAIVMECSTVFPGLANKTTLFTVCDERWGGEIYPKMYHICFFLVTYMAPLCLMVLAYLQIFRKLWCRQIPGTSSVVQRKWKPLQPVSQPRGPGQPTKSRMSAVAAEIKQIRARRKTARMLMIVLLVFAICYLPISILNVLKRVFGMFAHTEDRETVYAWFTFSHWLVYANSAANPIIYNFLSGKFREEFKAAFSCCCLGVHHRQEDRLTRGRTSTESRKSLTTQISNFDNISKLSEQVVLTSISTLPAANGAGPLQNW
From the text: (§1) The IP assay was adapted from a prior precedent. HEK293 cells were maintained in DMEM-high glucose (Millipore Sigma) supplemented with 5% fetal bovine serum (Corning) and penicillin-streptomycin (Millipore Sigma). Receptor constructs used were the full-length wild-type (or mutant) human OX1R and OX2R sequences cloned into pCDNA3. To enhance the Emax in the IP assay, a plasmid encoding full-length human Gαq subunit[66] was co-transfected into HEK293 cells with plasmids encoding orexin receptor constructs using Lipofectamine 3000 (Thermo Fisher). 24 h after transfection, the cells were plated on poly-D-lysine coated (Millipore Sigma) tissue culture-treated 96 well white plates with clear bottoms (Perkin Elmer) at 30,000 cells per well in Inositol-free DMEM (MP Biomedicals) supplemented with 5% fetal bovine serum, 4 mM L-glutamine (Millipore Sigma), penicillin-streptomycin, and about 5 uCi (5 ul) per ml myo-[2-3H] inositol (Perkin Elmer). The following day, the media was replaced with agonists that were diluted in HBSS (Millipore Sigma) containing 10 mM lithium chloride (Millipore Sigma) and incubated at 37 °C for 45 min. Then agonists were removed and cells were lysed on ice for 30 min with 10 mM formic acid (Millipore Sigma). 1.25 mg of poly-lysine coated YSI SPA beads (Perkin Elmer) was added to each well. The plates were mixed on an orbital shaker for 30 min. The plates were read on a MicroBeta scintillation counter (Perkin Elmer) the following day. IP accumulation assays on different constructs were performed in n ≥ 3 independent experiments (each done in duplicate), where n is shown in Supplementary Table 2.

[2] = target: T2, human OX2R (Homo sapiens, UniProt O43614); assay: Inhibition of forskolin-stimulated cAMP production (Gi signaling), OX2R + Gαi1; conditions: for stimulation of Gi1 as reduction in cAMP levels after forskolin treatment: HEK293 cells transfected with OX2R and Gαi1; for % Forskolin stimulation: OX2R + Gi
T2 construct: expressed in transfected cells; host or cells: HEK293
T2 sequence (O43614 1-444): T1 sequence (O43614 1-444)
Experimental: To measure Gi signaling[67], HEK293 cells were transfected with pGloSensor™−22F cAMP Plasmid (Promega) and CMV expression plasmid encoding human OX2R. To enhance the signal for the cAMP assay, we co-transfected a Gi expression plasmid (CMV-driven) in which the full-length human Gαi1 subunit sequence was cloned into pcDNA3. The following day, cells were harvested and washed with assay buffer, HBSS with 20 mM HEPES pH 7.4 (Millipore Sigma). Cells were suspended in assay buffer containing 0.5 mg/ml Luciferin (Gold Biotechnology) and plated on 96 well tissue culture-treated white plates with opaque bottoms (Thermo Fisher). The cells were incubated at 37 °C for 90 min. Forskolin (Millipore Sigma) diluted in assay buffer was added to wells for a final concentration of 5 mM. Luminescence was read at room temperature repeatedly in a CLARIOstar microplate reader (BMG Labtech) until the signal stopped increasing. Agonist diluted in assay buffer was added from a 7X stock and again the plates were read repeatedly until the signal was stable.

[3] = target: T3, OX2R F227A (Homo sapiens, UniProt O43614, F227A); assay: β-arrestin PathHunter assay, OX2R F227A; conditions: for EC50: β-arrestin recruitment; for beta-arrestin recruitment fold change: F227A, listed as OxB
T3 construct: expressed in transfected cells; host or cells: CHO-K1 stably expressing EA β-arrestin2
T3 sequence (O43614 1-444 F227A): T1 sequence (O43614 1-444) with F227A
Experimental: β-Arrestin recruitment activity was measured by using the PathHunter system (DiscoveRX) according to the manufacturer’s instruction. Receptor constructs used were the full-length wild-type (or mutant) human OX2R sequences cloned into pCMV-ProLink (DiscoveRX). CHO-K1 cells stably expressing EA β-arrestin2 (DiscoveRX) were plated on 384 well white plates (Thermo Fisher) at 4000 cells/well in HamF12 (Wako Pure Chemical Industries) supplemented with 10% fetal bovine serum (Corning) and penicillin-streptomycin (Wako Pure Chemical Industries) and incubated overnight at 37 °C under 5% CO2. Cells were transfected with plasmids encoding wild type or each mutant ProLink-tagged human OX2R using FuGENE HD (Promega). […] Detection reagent was added and incubated for 1 h at room temperature. Luminescent signal was detected using an EnVision plate reader (PerkinElmer). β-arrestin assays on different constructs were performed in two or three independent experiments (each done in quadruplicate). Dose response curves (shown in Supplementary Fig. 8) were fitted to the three-parameter model ‘log(agonist) vs response’ in GraphPad Prism to determine pEC50 values.

[4] = target: T4, OX2R T111A (Homo sapiens, UniProt O43614, T111A); assay: IP accumulation assay, OX2R T111A; conditions: for % IP accumulation: listed as OXB
T4 construct: FLAG; expressed in transfected cells; host or cells: HEK293
T4 sequence (O43614 1-444 T111A): T1 sequence (O43614 1-444) with T111A
From the text: as §1

EC50 ([1]; IP accumulation): 7.5 nM
% IP accumulation ([1]; TAK-925 conc (log, M) -10.25): 0.00%
Emax [1]: 100
% Forskolin stimulation ([2]; log [Agonist] -5.00): 72.69% and 86.21% and 88.94%
% Forskolin stimulation ([2]; log [Agonist] -5.52): 88.35% and 93.40% and 97.54%
% Forskolin stimulation ([2]; log [Agonist] -6.00): 94.60% and 96.68% and 103.97%
% Forskolin stimulation ([2]; log [Agonist] -6.52): 100.56% and 102.28% and 109.64%
% Forskolin stimulation ([2]; log [Agonist] -7.00): 100.76% and 107.19% and 105.95%
% Forskolin stimulation ([2]; log [Agonist] -7.52): 105.87% and 108.11% and 120.96%
% Forskolin stimulation ([2]; log [Agonist] -8.00): 107.95% and 108.44% and 107.03%
% Forskolin stimulation ([2]; log [Agonist] -8.52): 103.47% and 109.30% and 118.87%
EC50 ([3]; read-out: EC50): > 30000 nM
EC50 ([3]; read-out: pEC50 (converted)): > 30200 nM
EC50 ([4]; IP accumulation): 2100 nM
Emax ([4]; relative to OX2R WT/TAK-925): 53
Compound: COC(=O)N1CCC[C@H](NS(C)(=O)=O)[C@@H]1CO[C@H]1CC[C@@H](c2ccccc2)CC1 [TAK-925, methyl (2R,3S)−3-[(methylsulfonyl)amino]−2-{[(cis−4-phenylcyclohexyl)oxy]methyl}piperidine-1-carboxylate]
stimulation of Gi1 as reduction in cAMP levels after forskolin treatment [2]: poor ability to stimulate Gi1; also recorded: minimal diminution of cAMP signal

Compound: orexin B
% IP accumulation ([1]; OXB conc (log, M) -6.47712, listed as OXB): 93.64% and 92.82% and 91.17% and 95.11% and 103.46%
% IP accumulation ([1]; OXB conc (log, M) -10.29, listed as OXB): 0.00% and 0.37% and 3.64%
Emax [1]: 100
stimulation of Gi1 as reduction in cAMP levels after forskolin treatment [2]: poor ability to stimulate Gi1; also recorded: minimal diminution of cAMP signal
% Forskolin stimulation ([2]; log [Agonist] -5.00, listed as OXB): 62.35% and 75.49% and 85.20%
% Forskolin stimulation ([2]; log [Agonist] -5.52, listed as OXB): 65.51% and 74.64% and 79.34%
% Forskolin stimulation ([2]; log [Agonist] -6.00, listed as OXB): 67.69% and 72.61% and 81.55%
% Forskolin stimulation ([2]; log [Agonist] -6.52, listed as OXB): 83.40% and 83.94% and 91.79%
% Forskolin stimulation ([2]; log [Agonist] -7.00, listed as OXB): 104.15% and 101.20% and 102.30%
% Forskolin stimulation ([2]; log [Agonist] -7.52, listed as OXB): 105.47% and 101.46% and 103.50%
% Forskolin stimulation ([2]; log [Agonist] -8.00, listed as OXB): 105.90% and 100.54% and 102.29%
% Forskolin stimulation ([2]; log [Agonist] -8.52, listed as OXB): 101.42% and 105.57% and 98.48%
beta-arrestin recruitment fold change ([3]; OxB concentration -6.00 (log, M)): 9.362 fold and 8.115 fold and 7.068 fold and 6.668 fold
beta-arrestin recruitment fold change ([3]; OxB concentration -6.52 (log, M)): 5.797 fold and 5.207 fold and 4.992 fold and 3.983 fold
beta-arrestin recruitment fold change ([3]; OxB concentration -7.00 (log, M)): 2.141 fold and 2.264 fold and 1.690 fold and 2.115 fold
beta-arrestin recruitment fold change ([3]; OxB concentration -7.52 (log, M)): 0.997 fold and 1.239 fold and 0.840 fold and 1.032 fold
beta-arrestin recruitment fold change ([3]; OxB concentration -8.00 (log, M)): 0.797 fold and 0.852 fold and 0.855 fold and 0.772 fold
beta-arrestin recruitment fold change ([3]; OxB concentration -8.52 (log, M)): 0.707 fold and 0.923 fold and 0.738 fold and 0.787 fold
beta-arrestin recruitment fold change ([3]; OxB concentration -9.00 (log, M)): 0.670 fold and 0.812 fold and 0.735 fold and 0.836 fold
beta-arrestin recruitment fold change ([3]; OxB concentration -10.00 (log, M)): 0.813 fold and 0.979 fold and 0.709 fold and 0.989 fold
% IP accumulation ([4]; OXB conc (log, M) -6.95): 23.30% and 22.94% and 22.04%
% IP accumulation ([4]; OXB conc (log, M) -7.43): 18.33% and 16.23% and 14.57%
% IP accumulation ([4]; OXB conc (log, M) -7.91): 15.27% and 13.44% and 11.80%
